Here are results for five compounds from patent US12428666B2, “Compositions and methods related to kethoxal derivatives” (The University of Chicago, priority 2018, dated 2025).

“Also recorded” adds a separate entry of the source.

One assay concerns Pol II. Description: ssDNA-seq after Pol II inhibitor treatment. The class given is cell-based, human. To be noted: for ssDNA peak number: 2 h, control more than 43,000; for distribution of ssDNA-seq peaks on gene coding regions: after inhibitor treatment vs control. On the procedure: N3-kethoxal enables genome-wide single-stranded DNA mapping (ssDNA-seq). Taking advantage of the sensitivity and the selectivity of N3-kethoxal towards single-stranded nucleic acids, the inventors first applied N3-kethoxal to map single-stranded regions of the genome, which has not been previously achieved. Human embryonic kidney (HEK) cells were cultured in N3-kethoxal-containing medium for 10 min to facilitate labelling before harvested. Genomic DNA was then purified and subjected to biotinylation reaction through “click” chemistry. Biotinylated DNA was purified and fragmented, followed by immunoprecipitation with streptavidin-coated beads. Enriched DNA and their corresponding inputs was used to make libraries, which were then sequenced and aligned.
ssDNA is performed by: (1) Prepare labeling medium by adding 5 μL pure N3-kethoxal to 5 mL pre-warmed cell culture medium for each 10 cm dish. (2) Incubate cells in the labeling medium for 10 min at 37° C., 5% CO2. (3) For transcription inhibition experiments, cells were treated for 2 h under 100 μM DRB or 1 μM triptolide before incubated in N3-kethoxal-containing medium. (4) Harvest cells after the 10 min incubation, isolate total DNA from cells by PureLink genomic DNA mini kit according to the manufacturer's protocol. (5) Suspend 5 μg total DNA in 85 μL H2O, then add 10 μL 10×PBS and 5 μL 20 mM DBCO-PEG4-biotin (DMSO solution), incubate the mixture at 37° C. for 2 h. (6) Add 5 μL RNase A to the reaction mixture, incubate the mixture at 37° C. for another 15 min. (7) Recover DNA from the reaction mixture by DNA Clean & Concentrator kit according to the manufacturer's protocol.

The next assay concerns guanine. Description: Reaction of N3-kethoxal with RNA nucleic bases and RNA oligos (HPLC, MALDI-TOF). The assay is classed as biochemical. Conditions: 12 mer RNA oligo with 4 guanines. As for the experimental part: The reaction of N3-kethoxal and RNA was generally performed with the following protocol: 100 pmol RNA oligo and 1 μmol N3-kethoxal was incubated in total 10 μL solution in PBS buffer at 37° C. for 10 mins. […] The purified labelled RNA can be used for further studies such as mass spectrometry, gel electrophoresis and copper-free click reaction with biotin-DBCO.
MALDI-TOF-MS analysis of N3-kethoxal labelled RNA oligo. […] Meanwhile the buffer exchange occurred from PBS buffer to tris buffer that can be directly used in MALDI-TOF-MS experiment without extra desalt step. One microliter of product solution was mixed with one microliter matrix which include 8:1 volume ratio of 2′4′6′-trihydroxyacetophenone (THAP, 10 mg/mL in 50% CH3CN/H2O):ammonium citrate (50 mg/mL in H2O). Then the mixture was spotted on the MALDI sample plate, dried and analyzed by Bruker Ultraflextreme MALDI-TOF-TOF Mass Spectrometers.
The product of N3-kethoxal with for RNA nucleic bases was analyzed using LC-6AD (Shimadzu, Japan) HPLC instrument, which equipped with an Inertsil ODS-SP column ([…], 250×4.6 mm) (GL Science Inc. Japan). The phase A (100 mM TEAA buffer, pH=7.0) and phase B (CH3CN) were used as eluents with a flow rate of 1 mL/min at 35° C. (B conc.: 5-5-30%/0-5-30 min).

Assay [1] deals with mRNA secondary structures in live cells. Description: KARRI after translation inhibitor treatment. The class given is cell-based. To be noted: 100 μg/mL cycloheximide or 3 μg/mL harringtonine, 37° C., 10 min. As for the experimental part: KARRI is performed by: (1) Suspend live cells in 1% formaldehyde solution at 1×10^6/mL and incubate at room temperature for 10 min with gentle rotate. Then quench this reaction by adding glycine to a final concentration of 125 mM and rotate the mixture at room temperature for 5 min. For translation inhibitor treatment, cells were treated with 100 μg/mL cycloheximide or 3 μg/mL harringtonine at 37° C. for 10 min. (2) Collect and take 2×10^6 cells. Dilute N3-Kethoxal by 1:5 using DMSO. Make a labeling buffer by adding 10 μL N3-Kethoxal into 290 μL lysis buffer (10 mM Tris-HCl pH 8.0, 10 mM NaCl, 0.2 IGEPAL CA630) with 3 μL 100× proteinase inhibitor cocktail. (3) Suspend cells in labeling buffer and rotate at room temperature for 30 min, then centrifuge at 2500 g for 5 min at 4° C. to collect cells. (4) Wash cell pellets with 500 μL ice-cold lysis buffer for 3 times. (5) Suspend the pellet in 500 μL MeOH containing 10 μM dendrimers, rotate for 1 h at 37° C. Then centrifuge at 2500 g for 5 min at 4° C. to collect cells. (6) Wash cell pellet twice with 500 μL ice-cold lysis buffer. (7) Resuspend cells in 385 μL lysis buffer, add 50 μL 10% SDS, 30 μL proteinase K, 10 μL RNase inhibitor, 25 μL 500 mM K3BO3, shake at 65° C. for 2 h. (8) Add 500 μL phenol-chloroform to extract RNA and purify RNA by EtOH precipitation. […]

On to `CC(C)[C@]12O[C@H]1[C@@H]1O[C@]13[C@]1(O[C@H]1C[C@H]1C4=C(CC[C@@]13C)C(=O)OC4)[C@@H]2O` [Triptolide, triptolide], for which the ssDNA peak number with Pol II (1 μM triptolide) is given as ~3,700. In addition, in the assay with Pol II, the “distribution of ssDNA-seq peaks on gene coding regions” value is on record as “most peaks on gene coding regions disappeared”. For `Cc1ncccc1C(=O)n1ccnc1` [NAI, reference compound], the “labelling of RNA oligo (MALDI-TOF molecular weight of product)” value with guanine is “some oligoes were only reacted by one NAI and some were labelled by two or three”.

For the compound `COC(=O)C[C@](O)(CCC(C)(C)O)C(=O)O[C@@H]1C(OC)=C[C@]23CCCN2CCc2cc4c(cc2[C@H]13)OCO4` [harringtonine], in assay [1], the “effect on in vivo RNA secondary structures (KARRI)” value was “undermined in vivo-specific structures and increased in vitro features; also recorded: in vivo-specific structures were undermined while some in vitro-specific features showed up”. As to `C[C@@H]1C[C@@H]([C@H](O)CC2CC(=O)NC(=O)C2)C(=O)[C@@H](C)C1` [cycloheximide], the “effect on in vivo RNA secondary structures (KARRI)” value in assay [1] is “undermined in vivo-specific structures and increased in vitro features”. With `OC[C@H]1O[C@@H](n2cnc3cc(Cl)c(Cl)cc32)[C@H](O)[C@@H]1O` [DRB, 5,6-dichloro-1-β-D-ribofuranosylbenzimidazole], in the assay on Pol II (100 μM DRB), the ssDNA peak number result is reported as “around 16,000”. The “distribution of ssDNA-seq peaks on gene coding regions” value in the assay with Pol II is “Stronger peaks were observed at TSS while peaks on gene body and TES were eliminated”.
